Experimental data reported in patent US20100004169A1, “CCN3 peptide” (The Queen's University of Belfast, priority 2006, published 2010).
d = 2'-deoxy (DNA); r = 2'-OH (RNA)

How the values were obtained:
[1] = test system: CCN3; test: Real-time PCR of CCN3 expression in CML cell lines (K562) after treatment; format: cell-based, human; settings: for CCN3 expression (in words): CML cell lines; for mean Ct change for CCN3: n=3
Method: (§1) K562 cells were nucleofected following the manufacturer's instructions using the Cell Line Nucleofector Kit V, program T-16 (Amaxa GmbH, Cologne, Germany) and transfected with either the appropriate si-RNA, a scrambled si-RNA sequence or a non-silencing fluorescently labeled si-RNA (Amaxa GmbH) to monitor transfection efficiency. […] Leukemia.
(§2) RQ-PCR was performed with an ABI PRISM 7700 Sequence Detector which exploits TaqMan probe based chemistry (Applied Biosystems, Foster City, Calif.). The 5′ reporter used was 6-carboxyfluorescein (FAM) and the 3′ quencher was 6-carboxy-tetramethylrhodamine (TAMRA). Primers and probes for CCN3 were designed against GenBank published sequences in association with Primer Express (Applied Biosystems). […] Leukemia. […] Amplifications were performed following an initial 2-minute incubation at 50° C. to allow uracil-N-glycosylase (UNG) to destroy any contaminating […], followed by treatment at 95° C. for 10 minutes to inactivate the UNG enzyme and activate the AmpliTaq Gold DNA polymerase. This was followed by 40 to 45 cycles of denaturing at 95° C. for 15 seconds and annealing/extension at 60° C. for 1 minute. Data were collected and analysed with Sequence Detector v1.6.3 software (Applied Biosystems).

[2] = test system: CCN3; test: Real-time PCR of CCN3 in bone marrow of CML patients at diagnosis and following treatment; format: in vivo, human; settings: three CML patients, diagnosis vs following treatment
Source text: Leukemia. 2003; 17:2474-2486).

[3] = test system: CCN3; test: Western blot of cellular and secreted CCN3 in CD34+ cells from CML patients treated in vitro; format: cell-based, human; settings: CD34+ cells from three CML patients at diagnosis, imatinib 1 μM, 72 hours in vitro
[4] = test system: BCR-ABL; test: Real-time PCR of BCR-ABL expression in CML cell lines (K562) after treatment; format: cell-based, human
Method: as §1, §2

[5] = test system: CCN3; test: Extracellular (secreted) CCN3 protein levels in K562 after siRNA to BCR-ABL; format: cell-based, human; settings: K562 cells, n=3
Method: Protein was extracted from cells by suspending in RIPA buffer (1×PBS, 1% Nonidet NP-40, 0.1% SDS) containing a cocktail of protease Inhibitors (Complete Mini Cocktail, Roche Diagnostics Ltd, Lewes, UK) at a concentration of 10^7 cells/mL and lysing for 10 minutes on ice. Samples were sonicated for 10 seconds to ensure complete lysis, centrifuged at 10,000 g at 4° C. for 10 minutes and the supernatant removed for analysis. Total protein content was determined by the […] using the BCA protein assay kit (Pierce, Cramlington, UK). Protein (15 μg) was loaded onto a pre-cast Bis-Tris polyacrylamide gel (10%) using the Novex mini gel system (Invitrogen, Paisley, UK) and subsequently transferred to a PVDF membrane. CCN3 expression was detected using an antibody raised against the C terminus of CCN3. Equivalent protein loading was controlled by monitoring actin expression using a pan-actin antibody (Cell Signalling Technology Inc, MA). Immunoblots were visualised by enhanced chemiluminescence (Supersignal, Pierce). Optical densitometry was performed using the […] (Ultra-Violet Products Ltd., Cambridge, UK) and corrected for protein loading. CCN3 protein is glycosylated and binds to heparin. Medium in which ts BCR-ABL FDCP-Mix or control cells had been grown for 24 hours was harvested and enriched for CCN3 protein using heparin sepharose. […]

[6] = test system: K562 cells; test: Flow cytometric cell cycle analysis (sub-G0) of K562 cells treated with exogenous recombinant CCN3; format: cell-based, human; settings: 100 ng/ml CCN3, 48 hours
Method: K562 cells (1×10^6 cells/well) were treated with recombinant CCN3 (100 ng/ml, Peprotech EC, London, UK) in vitro for 48 hours. Cells were then fixed in 70% ethanol for flow cytometric analysis of cell cycle status as before.

[7] = K562 cells, siRNA 0.5 μg/10^8 cells, 24 hours

Molecule	CCN3 expression (in words) [1]	mean Ct change for CCN3 ([1]; K562 cells, 1 μM imatinib, 96 hours)	CCN3 expression following treatment (in words) [2]	cellular and secreted CCN3 expression (in words) [3]	fold increase in CCN3 [1, 7] [fold]	mean Ct change for CCN3 ([1]; K562 cells, siRNA to BCR-ABL)	BCR-ABL expression (in words) ([4]; CML cell lines)	fold decrease in BCR-ABL [4, 7] [fold]	mean Ct change for BCR-ABL ([4]; K562 cells, siRNA to BCR-ABL, n=3)	decrease in secreted levels of CCN3 protein [5] [%]	sub-G0 peak [6] [%]
Cc1ccc(NC(=O)c2ccc(CN3CCN(C)CC3)cc2)cc1Nc1nccc(-c2cccnc2)n1 [imatinib]	increased CCN3 expression	2.1±0.2	reciprocal rise in CCN3	significant increase in both cellular and secreted CCN3 expression							
si-RNA directed against BCR-ABL: 21-base si-RNA directed against the fusion sequence of BCR-ABL, SEQ ID NO 9 sense, SEQ ID NO 10 antisense (sense GCAGAGUUCAAAAGCCCUUTT; antisense AAGGGCUUUUGAACUCUGCTT; sugars from the 5' end r19 d2, backbone not given here)	increased CCN3 expression				6.1	2.6±0.5	significantly reduced BCR-ABL	3.7	1.9±0.2	33±5	
recombinant CCN3: recombinant CCN3 protein from Peprotech EC, London, UK (protein, UniProt P48745 32-357, looked up) CCN family member 3: TQRCPPQCPGRCPATPPTCAPGVRAVLDGCSCCLVCARQRGESCSDLEPCDESSGLYCDRSADPSNQTGICTAVEGDNCVFDGVIYRSGEKFQPSCKFQCTCRDGQIGCVPRCQLDVLLPEPNCPAPRKVEVPGECCEKWICGPDEEDSLGGLTLAAYRPEATLGVEVSDSSVNCIEQTTEWTACSKSCGMGFSTRVTNRNRQCEMLKQTRLCMVRPCEQEPEQPTDKKGKKCLRTKKSLKAIHLQFKNCTSLHTYKPRFCGVCSDGRCCTPHNTKTIQAEFQCSPGQIVKKPVMVIGTCTCHTNCPKNNEAFLQELELKTTRGKM											23.7±6.9
